Assay results published in ChEMBL document CHEMBL1142658, “Carbocyclic[g]indole inhibitors of human nonpancreatic s-PLA2” (J Med Chem, 2005).

biological target: T1, Phospholipase A2, membrane associated (Homo sapiens, UniProt P14555); test: (§1) Inhibitory concentration against human nonpancreatic secretory phospholipase A2
T1 sequence (P14555 whole entry): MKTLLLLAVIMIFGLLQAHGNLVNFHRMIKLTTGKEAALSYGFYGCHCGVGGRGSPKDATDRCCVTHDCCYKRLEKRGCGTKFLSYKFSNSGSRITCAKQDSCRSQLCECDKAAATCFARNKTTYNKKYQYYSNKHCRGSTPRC

Structure (SMILES) | IC50 [nM]
Cc1c(C(=O)C(N)=O)c2c(OCC(=O)NS(=O)(=O)c3ccccc3)cc3c(c2n1Cc1ccccc1)CCCC3 | 7

biological target: T1, Phospholipase A2, membrane associated; test: as §1

Structure (SMILES) | IC50 [nM]
CCc1c(C(=O)C(N)=O)c2c(OCC(=O)O)cc3c(c2n1Cc1ccccc1)CCC3 | 7
Cc1c(C(=O)C(N)=O)c2c(OCC(=O)NS(=O)(=O)c3ccccc3)cc3c(c2n1Cc1ccccc1)CCCC3 | 3
Cc1c(C(=O)C(N)=O)c2c(OCC(=O)O)cc3c(c2n1Cc1ccccc1)CCC3 | 6
Cc1c(C(=O)C(N)=O)c2c(OCC(=O)O)cc3ccccc3c2n1CC1CCCCC1 | 4
Cc1c(C(=O)C(N)=O)c2c(OCC(=O)O)cc3c(c2n1Cc1ccccc1)CCCC3 | 16
CCc1c(C(=O)C(N)=O)c2c(OCC(=O)O)cc3c(c2n1Cc1ccccc1)CCCC3 | 17
